Reference: patent publication US20180103845A1, “METHOD FOR ASSESSING IRRITANCY TO BIOLOGICAL SAMPLES” (OLYMPUS CORPORATION, priority 2016, published 2018)

System: human skin models based on SkinEthic RHE
Assay: Skin irritation test on three-dimensional human skin model (TG439 exposure, Nuclear-ID live/dead nuclear fluorescence, 3D confocal imaging)
Protocol: As such a biological sample 1, a three-dimensional human skin model approved in the OECD Testing Guidelines (TG) 439 (In Vitro Skin Irritation: Reconstructed Human Epidermis Test Method), such as SkinEthic RHE (manufactured by SkinEthic, France) having a thickness of about 100 μm, is favorably used. […] For irritancy assessment, dermal tissue may be contained in addition to the epidermis.
The chemical treatment step S1 is carried out in accordance with TG439. […]
Next, in the fluorescence labeling step S2, the nuclei of the cells in the biological tissues are fluorescence-labeled with a predetermined fluorescent marker. For fluorescence labeling, for example, a first fluorescent dye that specifically labels the nuclei of living cells, and a second fluorescent dye that emits fluorescence of a wavelength different from that of the first fluorescent dye and that specifically labels the nuclei of dead cells are used. […]
Next, in the image acquisition step S3, fluorescence images of the nuclei of living cells and the nuclei of dead cells at different depth positions in the biological sample are acquired using a fluorescence microscope.
FIGS. 5 and 6 show fluorescence images of biological samples exposed to 1% and 10% Triton-X, respectively. […] FIGS. 9 and 10 show fluorescence images of biological samples exposed to PBS and a 5% SDS solution, as controls. […]

Molecule	structures such as the nuclei of dead cells (human skin model exposed to 5% SDS solution, positive control (FIG. 10))	three-dimensional structures of cells, such as the nuclei (human skin model exposed to 1% and 10% chemical (FIGS. 5 to 8), 42 min exposure, 42 h culture per TG439)
CCCCCCCCCCCCOS(=O)(=O)[O-].[Na+] [SDS, sodium dodecyl sulphate]	disrupted	
Triton-X		preserved
